Test results published in the supplement of paper PMC10307832.

The cell lines below were run with CC1(C)CCC(CN2CCN(c3ccc(C(=O)NS(=O)(=O)c4ccc(NCC5CCOCC5)c([N+](=O)[O-])c4)c(Oc4cnc5[nH]ccc5c4)c3)CC2)=C(c2ccc(Cl)cc2)C1 [Venetoclax] + Cc1nc(NC(=O)N2CCC[C@H]2C(N)=O)sc1-c1ccnc(C(C)(C)C(F)(F)F)c1 [Alpelisib] (partner 2 µM) (assay: relative viability (nuclei count vs DMSO), 5 days (fraction); higher = more cells survive). Settings: first compound 0.01 µM.
Procedure, shortened: (§1)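 A single step with final 0.05% Triton X-100, 1% formaldehyde and 1 ug/ml Hoechst fixed the cells and stained nuclei 5 days after treatment. Lung cancer cell lines in 1536-well plates had been treated by pin tool the day after seeding with one drug alone or a fixed anchor-drug dose plus five library-drug doses (not always all listed) in √10 steps, and nuclei were counted on 4× images. Relative viability is the ratio of nuclei in treated wells to nuclei in vehicle wells, taken as the median of duplicate plates.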

Cell Line	relative viability
NCI-H2170	0.769
NCI-H322M	0.918
IA-LM	0.614
HCC-78	0.371
A549	0.755
NCI-H1299	1.02
BEN	0.976
HCC-15	0.872
HCC-827	0.954
NCI-H1703	0.361
NCI-H1563	1.03
HCC-366	0.5
ABC-1	0.933

Same assay, conditions: first compound 0.03162 µM

Cell Line	relative viability
PC-14	0.931
NCI-H1666	0.89
EBC-1	0.869
NCI-H1755	0.912
NCI-H2023	0.573
EPLC-272H	0.95
LCLC-97TM1	0.317
PC-3 [JPC-3]	1.03
LOU-NH91	0.802
NCI-H647	1.05
NCI-H23	0.62
EMC-BAC-2	0.744
NCI-H2126	0.728
Calu-6	0.917
HCC-44	0.745
NCI-H1734	0.732
NCI-H650	0.989
LK-2	1.28
NCI-H2228	0.842

Cell Line	relative viability
SK-MES-1	0.898
HARA	0.822
COR-L23	0.753
COR-L 105	0.959
LC-2-ad	0.906
LXF-289	1
NCI-H2170	0.739
NCI-H322M	0.881
IA-LM	0.726
HCC-78	0.303
A549	0.706
NCI-H1299	1.03
BEN	1.07
HCC-15	0.91
HCC-827	0.977
NCI-H1703	0.436
NCI-H1563	0.938
HCC-366	0.425
ABC-1	0.996

Same assay, conditions: first compound 0.1 µM

Cell Line	relative viability
PC-14	1.05
NCI-H1666	1.13
EBC-1	0.806
NCI-H1755	0.842
NCI-H2023	0.544
EPLC-272H	0.986
LCLC-97TM1	0.248
PC-3 [JPC-3]	1.01
LOU-NH91	0.689
NCI-H23	0.64
EMC-BAC-2	0.747
NCI-H2126	0.759
Calu-6	0.98
HCC-44	0.64
NCI-H1734	0.624
LK-2	1.12
NCI-H2228	0.698
SK-MES-1	0.887

Cell Line	relative viability
HARA	0.787
COR-L23	0.745
COR-L 105	1.13
LC-2-ad	1.02
LXF-289	1.04
NCI-H2170	0.75
NCI-H322M	0.836
IA-LM	0.892
HCC-78	0.313
A549	0.868
NCI-H1299	1.06
BEN	0.756
HCC-15	0.723
HCC-827	1
NCI-H1703	0.349
NCI-H1563	0.852
HCC-366	0.448
ABC-1	0.853

Same assay, conditions: first compound 0.3162 µM

Cell Line	relative viability
PC-14	0.952
NCI-H1666	0.971
EBC-1	0.831
NCI-H1755	0.962
NCI-H2023	0.553
EPLC-272H	1.11
LCLC-97TM1	0.241
PC-3 [JPC-3]	0.967
LOU-NH91	0.791
NCI-H647	1
NCI-H23	0.644
EMC-BAC-2	0.73
NCI-H2126	0.819
Calu-6	1.02
HCC-44	0.754
NCI-H1734	0.628
NCI-H650	1.13
LK-2	1.19
NCI-H2228	0.628

Cell Line	relative viability
SK-MES-1	0.788
HARA	0.891
COR-L23	0.766
COR-L 105	0.91
LC-2-ad	0.871
LXF-289	1.04
NCI-H2170	0.825
NCI-H322M	0.764
IA-LM	0.61
HCC-78	0.326
A549	0.85
NCI-H1299	1.04
BEN	1.06
HCC-15	0.857
HCC-827	0.976
NCI-H1703	0.385
NCI-H1563	0.987
HCC-366	0.501
ABC-1	0.967

Same assay, conditions: first compound 1 µM

Cell Line	relative viability
PC-14	0.776
NCI-H1666	1.04
EBC-1	0.875
NCI-H1755	0.893
NCI-H2023	0.551
EPLC-272H	0.977
LCLC-97TM1	0.249
PC-3 [JPC-3]	1.01
LOU-NH91	0.759
NCI-H647	1.01
NCI-H23	0.546
EMC-BAC-2	0.687
NCI-H2126	0.796
Calu-6	0.998
HCC-44	0.705
NCI-H1734	0.689
NCI-H650	1.01
LK-2	1.06
NCI-H2228	0.757

Cell Line	relative viability
SK-MES-1	0.831
HARA	0.787
COR-L23	0.741
COR-L 105	1.02
LC-2-ad	0.905
LXF-289	0.934
NCI-H2170	0.788
NCI-H322M	0.752
IA-LM	0.604
HCC-78	0.361
A549	0.716
NCI-H1299	1.03
BEN	1.01
HCC-15	0.735
HCC-827	0.994
NCI-H1703	0.303
NCI-H1563	1.03
HCC-366	0.317
ABC-1	1.01

Each cell line was assayed with Cn1cnc2c(F)c(Nc3ccc(Br)cc3Cl)c(C(=O)NOCCO)cc21 [Selumetinib] + C[C@]1(O)C[C@@H](c2nc(-c3ccc4ccc(-c5ccccc5)nc4c3)c3c(N)nccn32)C1 [Linsitinib] (partner 1 µM) in the same assay as above. Settings: first compound 0.02 µM.
Procedure, shortened: as §1

Cell Line	relative viability
PC-14	0.935
NCI-H1666	0.643
EBC-1	0.917
NCI-H1755	0.95
NCI-H2023	0.583
EPLC-272H	0.968
LCLC-97TM1	0.227
PC-3 [JPC-3]	0.95
LOU-NH91	0.773
NCI-H647	1.28
NCI-H23	0.585
EMC-BAC-2	0.732
NCI-H2126	0.679
Calu-6	1.03
HCC-44	0.701
NCI-H1734	0.862
NCI-H650	1.18
LK-2	0.466
NCI-H2228	0.605

Cell Line	relative viability
SK-MES-1	1.03
HARA	0.916
COR-L23	0.945
COR-L 105	1
LC-2-ad	0.824
LXF-289	1
NCI-H322M	0.717
IA-LM	0.406
HCC-78	0.446
A549	0.489
NCI-H1299	0.996
BEN	0.879
HCC-15	0.674
HCC-827	0.848
NCI-H1703	0.75
NCI-H1563	1.15
HCC-366	0.525
ABC-1	0.794

Same assay, conditions: first compound 0.06325 µM

Cell Line	relative viability
PC-14	0.87
NCI-H1666	0.614
EBC-1	0.844
NCI-H1755	0.852
NCI-H2023	0.546
EPLC-272H	1.09
LCLC-97TM1	0.193
PC-3 [JPC-3]	0.876
LOU-NH91	0.846
NCI-H647	1.06
NCI-H23	0.53
EMC-BAC-2	0.668
NCI-H2126	0.674
Calu-6	0.77
HCC-44	0.639
NCI-H1734	0.849
NCI-H650	1.03
LK-2	0.551
NCI-H2228	0.628

Cell Line	relative viability
SK-MES-1	1.03
HARA	0.837
COR-L23	0.88
COR-L 105	0.828
LC-2-ad	0.801
LXF-289	0.853
NCI-H322M	0.608
IA-LM	0.296
HCC-78	0.402
A549	0.436
NCI-H1299	0.833
BEN	0.898
HCC-15	0.502
HCC-827	0.929
NCI-H1703	0.637
NCI-H1563	1.2
HCC-366	0.406
ABC-1	0.678

Same assay, conditions: first compound 0.2 µM

Cell Line	relative viability
PC-14	0.912
NCI-H1666	0.606
EBC-1	0.933
NCI-H1755	0.845
NCI-H2023	0.466
EPLC-272H	0.848
LCLC-97TM1	0.207
PC-3 [JPC-3]	0.92
LOU-NH91	0.783
NCI-H647	0.827
NCI-H23	0.43
EMC-BAC-2	0.707
NCI-H2126	0.595
Calu-6	0.522
HCC-44	0.539
NCI-H1734	0.865
NCI-H650	0.941
LK-2	0.587
NCI-H2228	0.671

Cell Line	relative viability
SK-MES-1	0.814
HARA	0.84
COR-L23	0.864
COR-L 105	0.606
LC-2-ad	0.653
LXF-289	0.745
NCI-H322M	0.67
IA-LM	0.295
HCC-78	0.419
A549	0.363
NCI-H1299	0.88
BEN	0.745
HCC-15	0.351
HCC-827	0.931
NCI-H1703	0.67
NCI-H1563	1.11
HCC-366	0.249
ABC-1	0.607

Same assay, conditions: first compound 0.6325 µM

Cell Line	relative viability
PC-14	0.9
NCI-H1666	0.54
EBC-1	0.518
NCI-H1755	0.848
NCI-H2023	0.576
EPLC-272H	1.06
LCLC-97TM1	0.2
PC-3 [JPC-3]	0.727
LOU-NH91	0.727
NCI-H647	0.803
NCI-H23	0.369
EMC-BAC-2	0.743
NCI-H2126	0.538
Calu-6	0.362
HCC-44	0.575
NCI-H1734	0.816
NCI-H650	1.07
LK-2	0.312
NCI-H2228	0.359

Cell Line	relative viability
SK-MES-1	0.775
HARA	0.334
COR-L23	0.787
COR-L 105	0.623
LC-2-ad	0.9
LXF-289	0.719
NCI-H322M	0.626
IA-LM	0.254
HCC-78	0.378
A549	0.349
NCI-H1299	0.677
BEN	0.8
HCC-15	0.232
HCC-827	0.894
NCI-H1703	0.824
NCI-H1563	1.11
HCC-366	0.229
ABC-1	0.614
